Where a name gives a salt, the structure may show the parent alone. Read-outs that look alike come from different tables or passages of the source.

For test [1], the target named is T1, GST-ALK5 (TGF-beta receptor kinase) (Homo sapiens, UniProt P36897).
T1 sequence (P36897 34-503): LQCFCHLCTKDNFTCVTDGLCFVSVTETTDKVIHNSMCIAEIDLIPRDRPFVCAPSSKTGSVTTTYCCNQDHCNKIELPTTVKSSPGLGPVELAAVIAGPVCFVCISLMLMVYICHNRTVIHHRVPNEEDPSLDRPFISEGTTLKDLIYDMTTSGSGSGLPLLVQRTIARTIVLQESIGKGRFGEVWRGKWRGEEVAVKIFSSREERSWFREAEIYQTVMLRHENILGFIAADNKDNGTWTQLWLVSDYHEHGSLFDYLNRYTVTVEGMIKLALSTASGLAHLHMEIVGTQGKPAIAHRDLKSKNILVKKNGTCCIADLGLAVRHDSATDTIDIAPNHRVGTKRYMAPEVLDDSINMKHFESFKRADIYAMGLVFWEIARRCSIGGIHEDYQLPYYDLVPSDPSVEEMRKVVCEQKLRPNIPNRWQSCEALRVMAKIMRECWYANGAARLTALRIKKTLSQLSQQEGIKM
Put plainly: In-vitro (enzyme) kinase flashplate assay: GST-ALK5 phosphorylation of GST-SMAD2 with 33P-ATP. Particulars: 384-well flashplate kinase assay, GST-ALK5 / GST-SMAD2, 33P-ATP, 30° C., 45 min; read-out: TβR activity (Example 50). Format: biochemical. As to the method: In-vitro (Enzyme) Assay for Determination of the Efficacy of Inhibitors of the Inhibition of TGF-Beta-Mediated Effects
The kinase assay was carried out as 384-well flashplate assay. 31.2 nM of GST-ALK5, 439 nM of GST-SMAD2 and 3 mM of ATP (with 0.3 μCi of ^33P-ATP/well) were incubated in a total volume of 35 μl (20 mM of HEPES, 10 mM of MgCl2, 5 mM of MnCl2, 1 mM of DTT, 0.1% of BSA, pH 7.4) without or with test substance (5-10 concentrations) at 30° C. for 45 min. The reaction was stopped using 25 μl of 200 mM EDTA solution, filtered with suction at room temperature after 30 min, and the wells were washed with 3 times 100 μl of 0.9% NaCl solution. Radioactivity was measured in the TopCount. The IC50 values were calculated using RS1.

Test [2] concerns TGF-beta-induced phosphorylation of Smad2 (Ser465/467) and Smad3 (Ser423/425) in Mv1-Lu cells. Put plainly: Inhibition of Smad2/3 phosphorylation in Mv1Lu cells (PathScan Phospho-Smad2 ELISA). Format: cell-based, mink Mustela vison. As to conditions: Neogale vison, read-out: TβR activity (Example 51). As to the method: Inhibition of Smad2/3 Phosphorylation in Mv1 Lu Cells by TGF-Beta Receptor I Kinase Inhibitors
This assay was used to determine the inhibitory potency of compounds on TGF-beta-induced phosphorylation of Smad2 (Ser465/467) and Smad3 (Ser423/425). Mv1-Lu cells (lung epithelial cell line from mink Mustela vison; ATCC number: CCL-64) were seeded in DMEM (Invitrogen) supplemented with 10% fetal bovine serum (Pan Biotech) at a defined cell density in 24-well or 96-well plates (24-well plate: 1.5×10^5 cells per well; 96-well plate: 4×10^4 cells per well). Cell cultures were incubated in DMEM at 37° C. and 10% CO2. On the next day, the medium was replaced and cells were serum-starved for 16-20 hours. The following day, serial dilutions of compounds were added to the wells, pre-incubated for 1.5 hrs before recombinant TGF-beta 1 ligand (final concentration 5 ng/ml; R&D systems) was added. After one hour of ligand stimulation, lysates were prepared and analyzed using an enzyme-linked immunosorbent assay kit (PathScan Phospho-Smad2 Kit, Cell Signaling Technologies). The ELISA detects phosphorylated Smad2 as well as phosphorylated Smad3 with the phospho-specific antibody. TGF-beta stimulated cells and unstimulated cells served as positive and negative controls (100% and background control). The concentration of the vehicle DMSO was kept constant at 0.2% (v/v) in all wells. Dose-response relationships were fitted using curve fitting algorithms of the RS1 statistics software package (Brooks Automation Inc. RS/1- Statistical Tools Handbook. Release 6.2) to determine the concentration at which half-maximal inhibition (IC50) of Smad2/3 phosphorylation was achieved.
(In general: ELISA stands for enzyme-linked immunosorbent assay.)

Where [3] appears, read: Mv1-Lu cells, TGF-beta 1 5 ng/ml, Phospho-Smad2/3 ELISA.

`Fc1ccc(Cl)cc1-c1cc(-c2c[nH]c3cnccc23)c2cccnc2n1` [Compound 1, 2-(5-Chloro-2-fluoro-phenyl)-4-(1H-pyrrolo[2,3-c]pyridin-3-yl)-[1,8]naphthyridine]: the IC50 in test [1] and in test [2] (setting [3]) was less than 1 µM each time. In the case of `Fc1ccc(Cl)cc1-c1cc(-c2cccc3cnccc23)c2cccnc2n1` [Compound 2, 2-(5-Chloro-2-fluoro-phenyl)-4-isoquinolin-5-yl-[1,8]naphthyridine], the IC50 in test [1] and in test [2] (setting [3]) was less than 1 µM in each case. Take `Fc1ccc(C(F)(F)F)cc1-c1cc(-c2c[nH]c3cnccc23)c2cccnc2n1` [Compound 3, 2-(2-Fluoro-5-trifluoromethyl-phenyl)-4-(1H-pyrrolo[2,3-c]pyridin-3-yl)-[1,8]naphthyridine]: the IC50 in test [1] and in test [2] (setting [3]) was less than 1 µM throughout.

Regarding `Nc1nccc2c(-c3cc(-c4cc(Cl)ccc4F)nc4ncccc34)cccc12` [Compound 4, 5-[2-(5-Chloro-2-fluoro-phenyl)-[1,8]naphthyridin-4-yl]-isoquinolin-1-ylamine], the IC50 in test [1] and in test [2] (setting [3]) was less than 1 µM each time. Regarding `COCCn1cc(-c2cc(-c3cc(Cl)ccc3F)nc3ncccc23)c2ccncc21` [Compound 5, 2-(5-Chloro-2-fluoro-phenyl)-4-[1-(2-methoxy-ethyl)-1H-pyrrolo[2,3-c]pyridin-3-yl]-[1,8]naphthyridine], in test [2] (setting [3]), the IC50 is less than 1 µM. As for `Cc1cccc(-c2cc(-c3cccc4c(N)nccc34)c3cccnc3n2)n1` [Compound 6, 5-[2-(6-Methyl-pyridin-2-yl)-[1,8]naphthyridin-4-yl]-isoquinolin-1-ylamine], the IC50 in test [1] and in test [2] (setting [3]) was less than 1 µM throughout.

`Cc1cccc(-c2cc(-c3nccc4cnccc34)c3cccnc3n2)n1` [Compound 7, 2-(6-Methyl-pyridin-2-yl)-4-[2,6]naphthyridin-1-yl-[1,8]naphthyridine]: the IC50 in test [1] was less than 1 µM; in test [2] (setting [3]) it was 1 to 10 µM.

For the molecule `Nc1nccc2c(-c3cc(-c4cc(C(F)(F)F)ccc4F)nc4ncccc34)cccc12` [Compound 8, 5-[2-(2-Fluoro-5-trifluoromethyl-phenyl)-[1,8]naphthyridin-4-yl]-isoquinolin-1-ylamine], the IC50 in test [1] and in test [2] (setting [3]) was less than 1 µM throughout. Take `Nc1nccc2c(-c3cc(-c4ccccc4F)nc4ncccc34)cccc12` [Compound 9, 5-[2-(2-Fluoro-phenyl)-[1,8]naphthyridin-4-yl]-isoquinolin-1-ylamine]: the IC50 in test [1] and in test [2] (setting [3]) was less than 1 µM throughout. With `Nc1nccc2c(-c3cc(-c4cc(F)ccc4F)nc4ncccc34)cccc12` [Compound 10, 5-[2-(2,5-Difluoro-phenyl)-[1,8]naphthyridin-4-yl]-isoquinolin-1-ylamine], the IC50 in test [1] and in test [2] (setting [3]) was less than 1 µM each time.

In the case of `Nc1nccc2c(-c3cc(-c4cc(Cl)ccc4F)nc4ncccc34)nccc12` [Compound 11, 5-[2-(5-Chloro-2-fluoro-phenyl)-[1,8]naphthyridin-4-yl]-[2,6]naphthyridin-1-ylamine], the IC50 in test [1] and in test [2] (setting [3]) was less than 1 µM throughout. Turning to `Fc1ccc(Cl)cc1-c1cc(-c2coc3cnccc23)c2cccnc2n1` [Compound 12, 2-(5-Chloro-2-fluoro-phenyl)-4-furo[2,3-c]pyridin-3-yl-[1,8]naphthyridine], the IC50 in test [1] and in test [2] (setting [3]) was less than 1 µM each time. Consider `Nc1nccc2c(-c3cc(-c4cc(Cl)ccc4F)nc4ncccc34)coc12` [Compound 13, 3-[2-(5-Chloro-2-fluoro-phenyl)-[1,8]naphthyridin-4-yl]-furo[2,3-c]pyridin-7-ylamine], for which the IC50 in test [1] and in test [2] (setting [3]) was less than 1 µM throughout. In the case of `Nc1nccc2c(-c3cc(-c4ccccc4F)nc4ncccc34)nccc12` [Compound 14, 5-[2-(2-Fluoro-phenyl)-[1,8]naphthyridin-4-yl]-[2,6]naphthyridin-1-ylamine], the IC50 in test [1] and in test [2] (setting [3]) was less than 1 µM throughout.

`Nc1ncnc2c(-c3cc(-c4ccccc4F)nc4ncccc34)cccc12` [Compound 15, 8-[2-(2-Fluoro-phenyl)-[1,8]naphthyridin-4-yl]-quinazolin-4-ylamine]: the IC50 in test [2] (setting [3]) lay within 1 to 10 µM. Same read-out and setting: the value for `O=[N+]([O-])c1ccc(-c2cc(-c3ccccc3F)nc3ncccc23)c2ccncc12` [Compound 16, 2-(2-Fluoro-phenyl)-4-(8-nitro-isoquinolin-5-yl)-[1,8]naphthyridine] was less than 1 µM. Turning to `COc1ccc(-c2cc(-c3ccccc3F)nc3ncccc23)c2ccncc12` [Compound 17, 2-(2-Fluoro-phenyl)-4-(8-methoxy-isoquinolin-5-yl)-[1,8]naphthyridine], the IC50 in test [1] and in test [2] (setting [3]) was less than 1 µM throughout. In the case of `Fc1ccccc1-c1cc(-c2ncnc3cnccc23)c2cccnc2n1` [Compound 18, 4-[2-(2-Fluoro-phenyl)-[1,8]naphthyridin-4-yl]-pyrido[3,4-d]pyrimidine], the figures for the IC50 in test [1] and in test [2] (setting [3]) were 1 to 10 µM and greater than 10 µM, respectively.

Consider `Fc1ccccc1-c1cc(-c2cccc3cnccc23)c2cccnc2n1` [Compound 19, 2-(2-Fluoro-phenyl)-4-isoquinolin-5-yl-[1,8]naphthyridine], for which the IC50 in test [1] and in test [2] (setting [3]) was less than 1 µM each time. As for `Nc1nccc2c(-c3cc(-c4cc(F)ccc4F)nc4ncccc34)nccc12` [Compound 20, 5-[2-(2,5-Difluoro-phenyl)-[1,8]naphthyridin-4-yl]-[2,6]naphthyridin-1-ylamine hydrochloride], the IC50 in test [1] and in test [2] was less than 1 µM throughout.

Turning to `Cc1cccc(-c2cc(-c3nccc4c(N)nccc34)c3cccnc3n2)n1` [Compound 21, 5-[2-(6-Methyl-pyridin-2-yl)-[1,8]naphthyridin-4-yl]-[2,6]naphthyridin-1-ylamine hydrochloride], the IC50 in test [1] and in test [2] was less than 1 µM in each case. In the case of `Nc1ccc(-c2cc(-c3cc(Cl)ccc3F)nc3ncccc23)c2ccncc12` [Compound 22, 5-[2-(5-Chloro-2-fluoro-phenyl)-[1,8]naphthyridin-4-yl]-isoquinolin-8-ylamine hydrochloride], the IC50 in test [1] and in test [2] was less than 1 µM in each case.

In the case of `Nc1ncnc2c(-c3cc(-c4ccccc4F)nc4ncccc34)nccc12` [Compound 36, 8-[2-(2-Fluoro-phenyl)-[1,8]naphthyridin-4-yl]-pyrido[3,4-d]pyrimidin-4-ylamine], the IC50 in test [2] (setting [3]) is greater than 10 µM. Same read-out and setting: the value for `OCCOc1ccc(-c2cc(-c3ccccc3F)nc3ncccc23)c2ccncc12` [Compound 39, 2-{5-[2-(2-Fluoro-phenyl)-[1,8]naphthyridin-4-yl]-isoquinolin-8-yloxy}-ethanol] was less than 1 µM; that for `Nc1ccc(-c2cc(-c3ccccc3F)nc3ncccc23)c2ccncc12` [Compound 41, 5-[2-(2-Fluoro-phenyl)-[1,8]naphthyridin-4-yl]-isoquinolin-8-ylamine] was less than 1 µM; that for `Nc1cc2c(-c3cc(-c4cc(Cl)ccc4F)nc4ncccc34)cccc2cn1` [Compound 49, 5-[2-(5-Chloro-2-fluoro-phenyl)-[1,8]naphthyridin-4-yl]-isoquinolin-3-ylamine] was greater than 10 µM. Take `CC(=O)Nc1nccc2c(-c3cc(-c4ccccc4F)nc4ncccc34)nccc12` [Compound 69, N-{5-[2-(2-Fluoro-phenyl)-[1,8]naphthyridin-4-yl]-[2,6]naphthyridin-1-yl}-acetamide]: in test [1], the IC50 was less than 1 µM.
